From patent US20090181910A1, “METHOD OF PREVENTION AND ALLEVIATION OF TOXICITY BY MODULATION OF IRF3” (priority 2006, published 2009)

Legend:
[1] = tested on: ZNF202; assay: BMM Q-PCR: ZNF202 mRNA; type: cell-based, Murine; settings: polyI:C and LPS; data not shown
[2] = tested on: CRBPII; assay: BMM Q-PCR: CRBPII; type: cell-based, Murine; settings: LG268 10 nM with polyI:C 1 μg/ml; IRF3^−/− and IFNAR^−/− BMMs; FIG. 10a
[3] = tested on: RXRα; assay: Liver RNA Q-PCR, polyI:C/APAP-treated mice: RXRα; type: in vivo; settings: single polyI:C 100 μg i.v. 24 h before APAP 350 mg/kg i.p.; wildtype vs IRF3−/− mice; FIG. 1A
Description: FIG. 1: PolyI:C repression of RXRα and cytochrome P450 family members involves IRF3. Wildtype or IRF3−/− mice (n=4) fasted and were treated with 0.1% NaCl or polyI:C (100 μg) intravenous (i.v.) 24 hours prior to treatment with APAP (350 mg/kg) by intraperitoneal (i.p.) injection. 6 hours post-APAP treatment liver samples were isolated. Liver RNA analyzed by Q-PCR for (A) RXRα (B) Cyp1A2 and (C) Cyp3A11.
Age and sex matched 6-9 week old mice were used for all experiments. C57/B16 mice were obtained from Jackson Laboratory. IRF3^−/− mice were obtained from Dr. T. Taniguchi. For APAP hepatotoxicity analysis, mice fasted for […] and then administered Vehicle (0.1% NaCl) or APAP (175-600 mg/kg) by intraperitoneal injection (i.p.). For serum and histological studies, mice were sacrificed at 6-7 hours post injection and serum and liver samples were retrieved. For survival studies, mice were studied for up to 5 days. For polyI:C studies, mice were also treated with 0.1% NaCl or polyI:C (100 μg) intravenous (i.v.) 12-24 hours prior to APAP treatment. […] Serum alanine aminotransferase (ALT) levels were determined using manufacturer's protocol (TECO Diagnostics). […]
For quantitative realtime PCR (Q-PCR), total RNA was isolated and cDNA synthesized according to manufacturer's protocol: Trizol (RNA) and Bio-Rad iScript (cDNA). […]

[4] = tested on: PXR/RXR ER6 binding region of CYP3A4; assay: ChIP with anti-RXRα antibody at CYP3A4; type: cell-based, human; settings: combinatorial treatment with rifampicin 25 μM and polyI:C, 24 hours; FIG. 10g and h
Description: FIG. 10: PolyI:C transcriptional repression of RXRα is critical for repression of nuclear receptor target genes. a, Wildtype, IRF3^−/− and IFNAR^−/− BMMs were stimulated with Control (DMSO), or LG268 (10 nM) with or without polyI:C (1 μg/ml). RNA was analyzed by Q-PCR. b, pCMV-RAW 264.7 cells (MT) or pCMV-Hes1-RAW 264.7 cells (Hes1) were stimulated with Control (DMSO) and 9cRA with or without polyI:C (1 μg/ml) for 24 hrs. RNA was analyzed by Q-PCR. c, RAW264.7 cells transfected with siNS or siHes1 duplex oligos were stimulated with Control (DMSO) and 9cRA (10 μM) with or without polyI:C (1 μg/ml) for 24 hours. RNA was analyzed by Q-PCR. d, pBabe-RAW 264.7 cells (Raw_MT) and pBabe-RXRα-RAW264.7 cells (Raw-RXRα) were stimulated with Control (DMSO) or LG268 (10 nM) with or without polyI:C (1 μg/ml) for 24 hrs. RNA was analyzed by Q-PCR. e, pBabe-Huh7 cells (Huh7 MT) and pBabe-RXRα-Huh7 cells (Huh7-RXRα) were stimulated with Control (DMSO) and rifampicin (25 μM) with or without polyI:C (2 μg/ml, transfected). RNA was analyzed by Q-PCR. f, pBabe-Huh7 cells (Huh7 MT) and pBabe-RXRα-Huh7 cells (Huh7_RXRα) were stimulated with Control (DMSO) and ASA (20 μg/ml) with or without polyI:C (2 μg/ml, transfected). RNA was analyzed by Q-PCR. g,h, BMMs were stimulated with rifampicin (25 μM) and polyI:C (1 μg/ml) for 24 hours. […] PCR products on gel are quantified by ImageJ, normalized to Input. […]

## polyinosinic:polycytidylic acid [polyI:C]
[1]
  ZNF202 mRNA levels: unaffected
[2]
  LG268 induction of CRBPII: repressed by polyI:C in IFNAR^−/− BMMs but not IRF3^−/− BMMs
[3]
  RXRα mRNA in liver: potent downregulation of RXRα mRNA in an IRF3 dependent manner
[4]
  RXRα present on CYP3A4 promoter (ChIP): maximal loss of RXRα in the PXR/RXR ER6 binding region of CYP3A4
